Values belong to the molecule of their own block, whether it stands above or below them.
Experiments:
[1] = tested on: IL-2; experiment: IL-2 release from Jurkat cells (PMA and ionomycin, ELISA); format: cell-based, human; conditions: for IC50: Homo sapiens, Jurkat, Table III, 'the foregoing assay' of Example 2
Method: Since NFAT plays a critical role in IL-2 and TNFα gene transcription, the effects of the novel compounds on IL-2 and TNFα secretion from stimulated lymphoid cells were also investigated. Jurkat cells, in standard medium, were seeded into 24-well dishes at 1 million cells per well and were treated as follows: […], then stimulated with 20 ng/mL PMA and 1 μg/mL ionomycin for 5 hours. Following centrifugation, the supernatants were analyzed for IL-2 content by ELISA using a standard protocol.

[2] = tested on: NFAT; experiment: NFAT-regulated luciferase reporter assay in Jurkat cells; format: cell-based, human; conditions: for inhibition of NFAT activity: NFAT reporter assay, Jurkat cells
Method: The biological activity of column fractions and crystalline material was assessed in the NFAT activation assay using Jurkat cells stably transfected with NFAT-regulated luciferase reporter (see, FIGS. 9-14).
Jurkat cells, in standard medium, were seeded in 24-well dishes at 1 million cells per well and treated as follows. […] The cells were harvested 5 hours later and luciferase activity was measured in a luminometer.

[3] = tested on: JNK; experiment: JNK phosphorylation in Jurkat T cells (Western blot); format: cell-based, human; design: dose or concentration left out as unconfirmed; conditions: lovastatin
Excerpt: Cells were harvested, lysates prepared, and proteins Western blotted using antibodies directed against JNK or phospho-JNK (Thr183/Thr185).

[4] = tested on: IL-2; experiment: PBMC IL-2 release; format: cell-based; conditions: FIG. 3
[5] = tested on: oxazolone-induced contact hypersensitivity response; conditions: mouse, FIG. 6
[6] = tested on: TNF-alpha; experiment: PBMC TNF-alpha release; format: cell-based; conditions: FIG. 4
[7] = tested on: TNBS-induced colitis; experiment: Rat TNBS-induced colitis model; format: in vivo; conditions: 50 mg/kg/day intracolonically, two weeks, day 14
Excerpt: Human inflammatory bowel disease (IBD) is a chronic relapsing and remitting disease of unknown etiology that affects individuals of both sexes throughout life. The factors contributing to the two main forms of the disease, Crohn's disease and ulcerative colitis, are complex and probably involve abnormal immune responses and commensal intestinal microflora. A number of experimental models of intestinal inflammation have been developed, including those based on intracolonic instillation of 2,4,6-trinitrobenzene sulfonic acid (TNBS). TNBS-induced colitis shares many of the histopathological and clinical features of Crohn's disease, i.e. it is to some extent immune-mediated, produces long lasting ulcerative damage and thickening of the bowel wall, granulocyte and mononuclear cell infiltration and granuloma formation, and transmural inflammation of the mucosa, (Morris et al., Gastroenterology 96:795-803, 1989). This model has been widely used to evaluate potential treatments for colonic inflammation.
In the present study, the local anti-inflammatory effects of lovastatin were assessed in the rat TNBS-induced colitis model. Colitis was induced in male Wistar rats weighing 175-225 g by intracolonic instillation of the hapten TNBS (60 mg/ml) in 0.5 ml of 50% ethanol. Groups of 8 rats received the lovastatin formulation prepared in Example 11 (50 mg/kg/day), a positive control, budesonide (2.5 mg/kg/day), or vehicle (0.5% sodium carboxymethylcellulose) intracolonically 1 hour after induction of colitis, and at 12 h intervals thereafter for two weeks. The rats received 0.5 ml of test drug or vehicle at each dosing. On day 14 after induction of colitis, the animals were euthanized and the distal colon was removed and pinned out on a wax platform. The presence or absence of diarrhea was noted, as was the presence and severity of adhesions between the colon and other organs. The severity of colonic damage was scored using the criteria described in Appleyard and Wallace, Am. J. Physiol. 269 (Gastrointest.Liver Physiol. 32): G119-G125, 1995. […]

[8] = tested on: IFN-gamma; experiment: IFN-gamma production from Jurkat cells; format: cell-based, human
[9] = tested on: Crohn's disease; experiment: Maintenance therapy of Crohn's disease in remission; format: in vivo, human; conditions: Crohn's disease subjects in remission
Excerpt: Remission is defined as no need for oral prednisone and presence of a score of 150 or less on the Crohn's Disease Activity Index. This index incorporates eight items: the number of liquid or very soft stools in the seven days preceding the assessment, the severity of abdominal pain, general well-being, the presence or absence of an abdominal mass or extra-intestinal manifestation of the disease, the use of opiates to treat diarrhea, hematocrit, and weight. Scores in this index can range from 0 to approximately 600. Higher scores indicate greater disease activity.
Upon reaching remission, the subject takes lovastatin orally (Mevacor, 20-1000 mg) every day, in addition to one or more of the following: controlled release lovastatin tablet(s) targeting specific disease sites, lovastatin enema(s), or lovastatin rectal suppositories on a regular basis. On average, 50-60% of Crohn's disease subjects in remission relapse in 40 weeks.

[10] = tested on: rat basophilic leukemia (2H3) cells; experiment: 5-HT release from rat basophilic leukemia (2H3) cells; format: cell-based; conditions: FIG. 5
[11] = tested on: NF-κB; experiment: NF-κB luciferase reporter in Jurkat T cells; format: cell-based, human; conditions: 20 μg/ml, 5 hr
Method: The next day, cells were preincubated with lovastatin (20 μg/ml) or vehicle control for 15 min, and then stimulated with PMA (20 ng/ml), ionomycin (1 μg/ml), or PMA+ionomycin for 5 hr. The cells were harvested, lysed, and lysates assayed for firefly luciferase and Renilla luciferase activity measured in a luminometer.

[12] = tested on: IL-8; experiment: IL-8 production from Jurkat cells; format: cell-based, human

IC50 [1]: 300 µM
SMILES: O=C1C[C@H](O)C[C@H](CCc2ccccc2)O1

IC50 [1]: 150 µM
SMILES: O=C1C[C@@H](O)C[C@H](CCc2ccccc2)O1

IC50 [1]: > 50 µM
SMILES: O=C1CCCC(CCc2ccccc2)O1 (stereo not shown)

IC50 [1]: 5 µM
SMILES: O=C1C=CCC(CCc2ccccc2)O1 (stereo not shown)

IC50 [1]: > 50 µM
SMILES: O=C1CCC(CCc2ccccc2)O1 (stereo not shown)

IC50 [1]: 15 µM
SMILES: O=C1C=CC(CCc2ccccc2)O1 (stereo not shown)

IC50 [1]: > 50 µM
SMILES: O=C1C=C(CCc2ccccc2)CO1

IC50 [1]: 12 to 40 µM
SMILES: CCOC(=O)/C=C/C=C/CCc1ccccc1

IC50 [1]: 4 to 12 µM
SMILES: CCOC(=O)/C=C/C=C/C=C/c1ccccc1

IC50 [1]: 3 µM
SMILES: COC(=O)/C=C/C=C/C=C/c1c(-c2ccc(F)cc2)c2ccccc2n1C(C)C [drawing 85]

Second part, the molecule before the results:

SMILES: CN1C(=O)N(c2cc(Cl)cc(Cl)c2)C(=O)C1(C)Cc1ccc(Br)cc1 (single isomer, unassigned) [BIRT377 less active enantiomer]
inhibition of NFAT activity [2]: very weak NFAT inhibitory activity

SMILES: CN1C(=O)N(c2cc(Cl)cc(Cl)c2)C(=O)[C@@]1(C)Cc1ccc(Br)cc1 [BIRT377]
inhibition of NFAT activity [2]: very weak NFAT inhibitory activity

SMILES: COC(=O)/C=C/C=C/C=C/c1c(-c2ccc(F)cc2)c2ccccc2n1C(C)C [Compound 1079-76-3C]
IL-2 release by PMA and ionomycin in Jurkat cells ([1]; 5.0 μg/mL, 30 min pre-incubation, 5 hours): inhibit | inhibition of TG+PMA-induced NFAT activity ([2]; 5 μg/mL, 0.3 μM TG + 20 ng/mL PMA, 5 hours): approximately 85% | expression of NFAT-regulated reporter gene ([2]; Jurkat cells stimulated with ionomycin + PMA or thapsigargin + PMA): inhibited

SMILES: CC[C@H](C)C(=O)O[C@H]1C[C@H](O)C=C2C=C[C@H](C)[C@H](CC[C@@H](O)C[C@@H](O)CC(=O)O)[C@H]21 [Pravastatin, pravastatin]
inhibition of NFAT activity [2]: inactive

SMILES: CC(C)c1c(C(=O)Nc2ccccc2)c(-c2ccccc2)c(-c2ccc(F)cc2)n1CC[C@@H](O)C[C@@H](O)CC(=O)O [atorvastatin]
inhibition of NFAT activity [2]: inactive

SMILES: CC(C)n1c(/C=C/C(O)CC(O)CC(=O)O)c(-c2ccc(F)cc2)c2ccccc21 (stereo not shown) [fluvastatin]
inhibition of NFAT activity [2]: inactive

SMILES: CC[C@H](C)C(=O)O[C@H]1C[C@@H](C)C=C2C=C[C@H](C)[C@H](CC[C@@H]3C[C@@H](O)CC(=O)O3)[C@H]21 [lovastatin]
PMA-induced JNK phosphorylation [3]: little effect | JNK phosphorylation induced by PMA+ionomycin ([3]; 15 min pre-incubation, 30 min stimulation): inhibits | inhibition of PBMC IL-2 release [4]: inhibition | inhibition of Jurkat IL-2 release ([1]; FIG. 2): inhibition | inhibition of oxazolone-induced contact hypersensitivity response [5]: inhibition | inhibition of PBMC TNF-alpha release [6]: inhibition | inhibition of NFAT activity [2]: able to inhibit | colonic MPO activity [7]: reduced | colonic damage score [7]: significant (p<0.05) reduction | global colitis score [7]: significant (p<0.05) reduction | inhibition of IFN-gamma production [8]: inhibition | disease activity [9]: less severe | remission time between relapse ([9]; oral 20-1000 mg every day plus local forms): longer | inhibition of 5-hydroxytryptomine (5-HT) release [10]: inhibition | calcium-dependent NF-κB activation (ionomycin synergy with PMA) [11]: strongly inhibits | inhibition of IL-8 production [12]: inhibition

SMILES: CCC(C)C(=O)OC1CCC=C2C=CC(C)C(CCC(O)CC(O)CC(=O)O)C21 (stereo not shown) [mevastatin open chain form]
inhibition of NFAT activity [2]: only the lactone form was active

SMILES: CC[C@H](C)C(=O)O[C@H]1CCC=C2C=C[C@H](C)[C@H](CC[C@@H]3C[C@@H](O)CC(=O)O3)[C@H]21 [mevastatin]
inhibition of NFAT activity [2]: able to inhibit | inhibition of NFAT activity ([2]; listed as mevastatin lactone form): active
